Assay results from patent US20180135134A1, “TARGETED SELECTION OF PATIENTS FOR TREATMENT WITH CORTISTATIN DERIVATIVES” (President and Fellows of Harvard College, priority 2015, published 2018).

Assays:
[1] = test system: RL95-2; experiment: Soft agar growth assay (Alamar Blue); conditions: ER-alpha positive, 100 nM cortistatin A
Protocol: (§1) For the 62 cell lines 96 well suspension cell culture plates were prepared. 100 μL of the soft agar bottom layer (0.6% final concentration in complete medium) was poured and left to solidify. 50 μL of the soft agar top layer (0.4% final concentration) containing the corresponding cells and cell number were then added on top, solidified and incubated at 37° C., 10% CO2. After the soft agar had solidified, the test items were added at indicated final concentrations into the inner wells of the plate. Subsequently, the assay was incubated in cell culture incubators for 8 to 14 days. Finally, the assay was developed using Alamar Blue and upon 1-5 h of incubation at 37° C. fluorescence intensity was determined (excitation: 560 nm; emission: 590 nm). As low control, cells were treated with 1E-05M Staurosporine (6fold values). As high control, cells were treated with 0.1% DMSO (solvent control, 6 fold values).
(§2) Raw data were converted into percent soft agar growth relative to high controls (solvent 0.1% DMSO) and low controls (1E-05M Staurosporine), which were set to 100% and 0%, respectively.

[2] = test system: JeKo-1; experiment: Cellular proliferation assay (CellTiter-Glo); conditions: Homo sapiens
Protocol: (§3) All suspension cells were plated (96-well) in triplicate at 5,000-30,000 cells per well for testing (n=3). Viable cell number was estimated after 3, 7 and 10 days by counting viable cells from one vehicle well, generating a cell dilution series, transferring 20 ml per well in duplicate to a 384-well plate, and performing a linear regression to CellTiter-Glo (Promega) response (SPECTRAmax M3, Molecular Devices). Cells from all wells were also fourfold diluted in media and transferred in duplicate for CellTiter-Glo measurement. On days 3 and 7, an equal volume for all wells was split-back with fresh media and compound, such that the resulting cell density for the vehicle well matched the initial seeding density. For days 7 and 10, estimated cell number represents the split-adjusted theoretical cell number. HCT116 were plated (96-well) in triplicate at 250 cells per well. Cells were incubated in the presence of vehicle, 1 μM paclitaxel, or compound. On day 7, CellTiter-Blue (Promega) response was measured and values were normalized to vehicle (100% growth) and paclitaxel (0% growth). For growth assays with inhibitors, n=3 for each concentration with two independent experiments.

[3] = test system: MKN-45; experiment: Soft agar growth assay (Alamar Blue); conditions: Gastric cancer, MET amplification, 100 nM cortistatin A
Protocol: as §1, §2

[4] = test system: HCT116; experiment: Cellular proliferation assay (CellTiter-Blue, day 7); conditions: Homo sapiens, HCT-116
Protocol: as §3

[5] = test system: GRANTA 519; experiment: Cellular proliferation assay (CellTiter-Glo); conditions: Homo sapiens
Protocol: as §3

[6] = test system: TF-1; experiment: Cellular proliferation assay (CellTiter-Glo); conditions: Homo sapiens
Protocol: as §3

[7] = test system: MOLM-14; experiment: Cellular proliferation assay (CellTiter-Glo); conditions: Homo sapiens
Protocol: (§4) All suspension cells were plated (96-well) in triplicate at 5,000-30,000 cells per well for testing (n=3). Viable cell number was estimated after 3, 7 and 10 days by counting viable cells from one vehicle well, generating a cell dilution series, transferring 20 ml per well in duplicate to a 384-well plate, and performing a linear regression to CellTiter-Glo (Promega) response (SPECTRAmax M3, Molecular Devices). Cells from all wells were also fourfold diluted in media and transferred in duplicate for CellTiter-Glo measurement. On days 3 and 7, an equal volume for all wells was split-back with fresh media and compound, such that the resulting cell density for the vehicle well matched the initial seeding density. For days 7 and 10, estimated cell number represents the split-adjusted theoretical cell number. […] For growth assays with inhibitors, n=3 for each concentration with two independent experiments.

[8] = test system: SK-ES-1; experiment: Soft agar growth assay (Alamar Blue); conditions: EWS-FLI1, 100 nM cortistatin A
Protocol: as §1, §2

[9] = test system: OCI-LY1; experiment: Cellular proliferation assay (CellTiter-Glo); conditions: Homo sapiens
Protocol: as §4

[10] = test system: SK-N-MC; experiment: Soft agar growth assay (Alamar Blue); conditions: Neuroblastoma, EWS-FLI1, 100 nM cortistatin A
Protocol: as §1, §2

`CN(C)[C@H]1C[C@@]23CC[C@@]4(O2)C(=CC[C@]2(C)[C@@H](c5ccc6ccncc6c5)CC[C@H]24)C=C3[C@@H](O)[C@@H]1O` [Cortistatin A, cortistatin A] was tested, and the “% growth rel. to vehicle” value [1] was 16%, the GI50 [2] was < 1 nM and the “% growth rel. to vehicle” value [3] was 27%. The GI50 [4] was > 1000 nM, the GI50 [5] was 400 nM and the GI50 [6] was 350 nM. The GI50 ([7]; MOLM-14) was 5 nM, the GI50 ([7]; MOLM-14, 240 h) was 5 nM and the “% growth rel. to vehicle” value [8] was 36%. For the same compound, the GI50 [9] was 37 nM and the “% growth rel. to vehicle” value [10] was 45%.
